Columns and labels:
[1] = target: T1, Tyrosine-protein kinase JAK3 (Homo sapiens, UniProt P52333); test: Inhibition of JAK3 (unknown origin) by filter assay
T1 sequence (P52333 whole entry): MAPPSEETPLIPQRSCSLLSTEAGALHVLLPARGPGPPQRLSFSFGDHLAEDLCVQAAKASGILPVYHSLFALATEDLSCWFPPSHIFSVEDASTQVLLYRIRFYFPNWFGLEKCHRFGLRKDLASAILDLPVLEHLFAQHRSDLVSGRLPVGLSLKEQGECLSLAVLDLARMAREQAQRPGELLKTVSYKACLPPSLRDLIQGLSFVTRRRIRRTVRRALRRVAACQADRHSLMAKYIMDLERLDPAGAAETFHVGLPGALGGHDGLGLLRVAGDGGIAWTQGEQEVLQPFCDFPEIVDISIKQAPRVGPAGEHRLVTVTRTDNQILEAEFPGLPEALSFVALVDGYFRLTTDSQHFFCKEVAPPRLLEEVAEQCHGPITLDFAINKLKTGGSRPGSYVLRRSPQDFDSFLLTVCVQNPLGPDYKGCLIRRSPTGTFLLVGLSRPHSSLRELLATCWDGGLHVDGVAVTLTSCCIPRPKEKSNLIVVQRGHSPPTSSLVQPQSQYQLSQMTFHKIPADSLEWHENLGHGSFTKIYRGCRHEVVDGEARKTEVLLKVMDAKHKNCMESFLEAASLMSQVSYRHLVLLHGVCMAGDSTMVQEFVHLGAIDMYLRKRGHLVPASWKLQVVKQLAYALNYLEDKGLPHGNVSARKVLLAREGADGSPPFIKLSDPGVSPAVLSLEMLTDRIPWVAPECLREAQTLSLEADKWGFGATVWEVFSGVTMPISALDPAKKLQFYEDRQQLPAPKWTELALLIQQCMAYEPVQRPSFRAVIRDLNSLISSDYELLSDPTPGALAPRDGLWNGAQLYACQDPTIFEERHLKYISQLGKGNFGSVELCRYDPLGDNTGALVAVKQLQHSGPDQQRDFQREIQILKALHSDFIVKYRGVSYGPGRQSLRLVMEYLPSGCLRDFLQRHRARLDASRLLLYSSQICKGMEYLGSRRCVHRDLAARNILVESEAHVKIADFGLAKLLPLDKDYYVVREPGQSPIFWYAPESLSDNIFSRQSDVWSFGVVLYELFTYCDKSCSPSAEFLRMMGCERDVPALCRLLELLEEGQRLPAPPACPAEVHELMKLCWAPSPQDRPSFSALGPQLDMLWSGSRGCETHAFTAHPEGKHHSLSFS

[2] = target: Tyrosine-protein kinase JAK1 (Homo sapiens, UniProt P23458); test: Inhibition of JAK1 (unknown origin) bycaliper assay
[3] = target: Non-receptor tyrosine-protein kinase TYK2 (Homo sapiens, UniProt P29597); test: Inhibition of TYK2 (unknown origin) by caliper assay
[4] = target: Tyrosine-protein kinase JAK2 (Homo sapiens, UniProt O60674); test: Inhibition of JAK2 (unknown origin) by caliper assay
[5] = system: Blood; test: Inhibition of IL2-induced IFN-gamma production in human whole blood incubated for 18 hrs by ELISA method; assay type: functional, tissue-based
[6] = Protein binding in human serum; assay type: ADME, cell-free; conditions: read-out: PB (converted)
[7] = Permeability by PAMPA method; assay type: ADME; conditions: read-out: permeability
[8] = Permeability in human Caco2 cells; assay type: ADME, cell-based; conditions: Caco-2, read-out: permeability
[9] = (§1) Fraction unbound in human serum; assay type: ADME, cell-free
[10] = system: Serum; test: as §1; assay type: ADME, cell-free
[11] = target: T2, Cytochrome P450 1A2 (Homo sapiens, UniProt P05177); test: Inhibition of CYP1A2 (unknown origin); assay type: ADME
T2 sequence (P05177 whole entry): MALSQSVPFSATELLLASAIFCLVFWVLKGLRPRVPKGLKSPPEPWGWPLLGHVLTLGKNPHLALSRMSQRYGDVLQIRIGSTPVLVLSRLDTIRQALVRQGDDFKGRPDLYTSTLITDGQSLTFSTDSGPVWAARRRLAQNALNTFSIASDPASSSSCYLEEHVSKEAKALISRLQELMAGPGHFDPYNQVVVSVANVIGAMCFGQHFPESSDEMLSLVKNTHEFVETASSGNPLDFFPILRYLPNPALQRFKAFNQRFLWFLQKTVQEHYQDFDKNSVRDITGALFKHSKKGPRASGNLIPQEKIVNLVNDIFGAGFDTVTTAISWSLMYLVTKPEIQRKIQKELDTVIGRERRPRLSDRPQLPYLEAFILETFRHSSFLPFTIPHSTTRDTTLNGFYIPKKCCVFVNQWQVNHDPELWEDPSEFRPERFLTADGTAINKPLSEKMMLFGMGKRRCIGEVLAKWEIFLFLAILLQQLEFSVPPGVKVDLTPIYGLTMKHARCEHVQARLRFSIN

[12] = Inhibition of […] (unknown origin); assay type: ADME, Homo sapiens
[13] = target: T3, Cytochrome P450 2C8 (Homo sapiens, UniProt P10632); test: Inhibition of CYP2C8 (unknown origin); assay type: ADME
T3 sequence (P10632 whole entry): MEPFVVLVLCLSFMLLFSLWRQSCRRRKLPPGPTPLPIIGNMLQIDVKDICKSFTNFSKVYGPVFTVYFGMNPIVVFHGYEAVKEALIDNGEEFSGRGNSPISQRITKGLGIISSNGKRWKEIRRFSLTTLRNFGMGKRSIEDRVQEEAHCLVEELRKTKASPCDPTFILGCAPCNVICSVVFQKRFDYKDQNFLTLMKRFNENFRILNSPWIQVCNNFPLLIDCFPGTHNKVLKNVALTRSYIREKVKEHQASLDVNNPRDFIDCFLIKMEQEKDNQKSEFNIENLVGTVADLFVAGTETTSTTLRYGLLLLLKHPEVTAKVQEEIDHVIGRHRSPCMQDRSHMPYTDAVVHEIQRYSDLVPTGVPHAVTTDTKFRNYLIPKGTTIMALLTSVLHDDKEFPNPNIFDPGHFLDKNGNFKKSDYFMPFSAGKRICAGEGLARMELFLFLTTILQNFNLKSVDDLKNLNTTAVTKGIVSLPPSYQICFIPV

[14] = target: Cytochrome P450 2C9 (Homo sapiens, UniProt P11712); test: Inhibition of CYP2C9 (unknown origin); assay type: ADME
[15] = target: Cytochrome P450 2D6 (Homo sapiens, UniProt P10635); test: Inhibition of CYP2D6 (unknown origin); assay type: ADME
[16] = target: Cytochrome P450 3A4 (Homo sapiens, UniProt P08684); test: Inhibition of CYP3A4 (unknown origin); assay type: ADME
[17] = Half life mouse liver microsomes; assay type: ADME
[18] = Half life human liver microsomes; assay type: ADME
[19] = AUC in balb/c mouse at 2 mg/kg, iv; assay type: ADME, organism-based; set-up: dose 2 mg/kg, route intravenous; conditions: plasma
[20] = Half life in balb/c mouse at 2 mg/kg, iv; assay type: ADME, organism-based; set-up: dose 2 mg/kg, route intravenous; conditions: in vivo
[21] = Clearance in balb/c mouse at 2 mg/kg, iv; assay type: ADME, organism-based; set-up: dose 2 mg/kg, route intravenous; conditions: in vivo
[22] = Volume of distribution at steady state in balb/c mouse at 2 mg/kg, iv; assay type: ADME, organism-based; set-up: dose 2 mg/kg, route intravenous; conditions: in vivo, read-out: Vdss
[23] = Cmax in balb/c mouse at 2 mg/kg, po; assay type: ADME, organism-based; set-up: dose 2 mg/kg, route oral; conditions: in vivo
[24] = Tmax in balb/c mouse at 2 mg/kg, po; assay type: ADME, organism-based; set-up: dose 2 mg/kg, route oral; conditions: in vivo
[25] = AUC in balb/c mouse at 2 mg/kg, po; assay type: ADME, organism-based; set-up: dose 2 mg/kg, route oral; conditions: plasma
[26] = Half life in balb/c mouse at 2 mg/kg, po; assay type: ADME, organism-based; set-up: dose 2 mg/kg, route oral; conditions: in vivo
[27] = Oral bioavailability in balb/c mouse at 2 mg/kg; assay type: ADME, organism-based; conditions: in vivo
[28] = Cmax in balb/c mouse at 10 mg/kg, po; assay type: ADME, organism-based; set-up: dose 10 mg/kg, route oral; conditions: in vivo
[29] = Tmax in balb/c mouse at 10 mg/kg, po; assay type: ADME, organism-based; set-up: dose 10 mg/kg, route oral; conditions: in vivo
[30] = AUC in balb/c mouse at 10 mg/kg, po; assay type: ADME, organism-based; set-up: dose 10 mg/kg, route oral; conditions: plasma
[31] = Half life in balb/c mouse at 10 mg/kg, po; assay type: ADME, organism-based; set-up: dose 10 mg/kg, route oral; conditions: in vivo
[32] = Oral bioavailability in balb/c mouse at 10 mg/kg; assay type: ADME, organism-based; conditions: in vivo
[33] = Cmax in balb/c mouse at 50 mg/kg, po; assay type: ADME, organism-based; set-up: dose 50 mg/kg, route oral; conditions: in vivo
[34] = Tmax in balb/c mouse at 50 mg/kg, po; assay type: ADME, organism-based; set-up: dose 50 mg/kg, route oral; conditions: in vivo
[35] = AUC in balb/c mouse at 50 mg/kg, po; assay type: ADME, organism-based; set-up: dose 50 mg/kg, route oral; conditions: plasma
[36] = Half life in balb/c mouse at 50 mg/kg, po; assay type: ADME, organism-based; set-up: dose 50 mg/kg, route oral; conditions: in vivo
[37] = Oral bioavailability in balb/c mouse at 50 mg/kg; assay type: ADME, organism-based; conditions: in vivo

Tyrosine-protein kinase JAK2, sequence (O60674 whole entry): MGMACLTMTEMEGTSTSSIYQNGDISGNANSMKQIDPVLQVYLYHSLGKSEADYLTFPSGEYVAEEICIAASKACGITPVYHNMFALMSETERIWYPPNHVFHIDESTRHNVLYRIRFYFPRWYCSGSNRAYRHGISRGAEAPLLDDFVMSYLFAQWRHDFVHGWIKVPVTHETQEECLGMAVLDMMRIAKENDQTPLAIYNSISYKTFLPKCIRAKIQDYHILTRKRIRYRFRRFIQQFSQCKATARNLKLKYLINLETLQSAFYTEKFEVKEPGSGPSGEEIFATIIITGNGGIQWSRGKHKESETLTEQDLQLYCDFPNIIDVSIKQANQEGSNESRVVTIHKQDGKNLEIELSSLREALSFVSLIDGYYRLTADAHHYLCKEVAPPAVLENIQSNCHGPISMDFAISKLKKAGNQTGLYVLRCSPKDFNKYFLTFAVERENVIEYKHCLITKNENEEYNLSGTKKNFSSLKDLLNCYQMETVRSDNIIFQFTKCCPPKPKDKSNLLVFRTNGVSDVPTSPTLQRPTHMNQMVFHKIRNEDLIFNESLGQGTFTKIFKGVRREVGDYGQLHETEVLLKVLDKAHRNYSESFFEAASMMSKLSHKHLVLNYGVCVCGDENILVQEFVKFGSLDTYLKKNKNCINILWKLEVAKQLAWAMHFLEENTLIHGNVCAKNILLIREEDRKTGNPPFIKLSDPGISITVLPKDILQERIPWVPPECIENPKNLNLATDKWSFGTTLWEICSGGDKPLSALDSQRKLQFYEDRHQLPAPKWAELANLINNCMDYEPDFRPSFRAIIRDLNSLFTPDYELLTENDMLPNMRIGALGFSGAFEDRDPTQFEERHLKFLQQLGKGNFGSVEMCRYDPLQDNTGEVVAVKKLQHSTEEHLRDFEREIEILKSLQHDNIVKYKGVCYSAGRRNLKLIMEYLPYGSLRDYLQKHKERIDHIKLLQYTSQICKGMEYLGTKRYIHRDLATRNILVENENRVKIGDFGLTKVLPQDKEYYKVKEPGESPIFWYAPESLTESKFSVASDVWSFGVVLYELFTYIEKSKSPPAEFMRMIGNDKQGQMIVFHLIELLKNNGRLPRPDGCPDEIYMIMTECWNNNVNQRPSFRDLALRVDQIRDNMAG
Tyrosine-protein kinase JAK1, sequence (P23458 whole entry): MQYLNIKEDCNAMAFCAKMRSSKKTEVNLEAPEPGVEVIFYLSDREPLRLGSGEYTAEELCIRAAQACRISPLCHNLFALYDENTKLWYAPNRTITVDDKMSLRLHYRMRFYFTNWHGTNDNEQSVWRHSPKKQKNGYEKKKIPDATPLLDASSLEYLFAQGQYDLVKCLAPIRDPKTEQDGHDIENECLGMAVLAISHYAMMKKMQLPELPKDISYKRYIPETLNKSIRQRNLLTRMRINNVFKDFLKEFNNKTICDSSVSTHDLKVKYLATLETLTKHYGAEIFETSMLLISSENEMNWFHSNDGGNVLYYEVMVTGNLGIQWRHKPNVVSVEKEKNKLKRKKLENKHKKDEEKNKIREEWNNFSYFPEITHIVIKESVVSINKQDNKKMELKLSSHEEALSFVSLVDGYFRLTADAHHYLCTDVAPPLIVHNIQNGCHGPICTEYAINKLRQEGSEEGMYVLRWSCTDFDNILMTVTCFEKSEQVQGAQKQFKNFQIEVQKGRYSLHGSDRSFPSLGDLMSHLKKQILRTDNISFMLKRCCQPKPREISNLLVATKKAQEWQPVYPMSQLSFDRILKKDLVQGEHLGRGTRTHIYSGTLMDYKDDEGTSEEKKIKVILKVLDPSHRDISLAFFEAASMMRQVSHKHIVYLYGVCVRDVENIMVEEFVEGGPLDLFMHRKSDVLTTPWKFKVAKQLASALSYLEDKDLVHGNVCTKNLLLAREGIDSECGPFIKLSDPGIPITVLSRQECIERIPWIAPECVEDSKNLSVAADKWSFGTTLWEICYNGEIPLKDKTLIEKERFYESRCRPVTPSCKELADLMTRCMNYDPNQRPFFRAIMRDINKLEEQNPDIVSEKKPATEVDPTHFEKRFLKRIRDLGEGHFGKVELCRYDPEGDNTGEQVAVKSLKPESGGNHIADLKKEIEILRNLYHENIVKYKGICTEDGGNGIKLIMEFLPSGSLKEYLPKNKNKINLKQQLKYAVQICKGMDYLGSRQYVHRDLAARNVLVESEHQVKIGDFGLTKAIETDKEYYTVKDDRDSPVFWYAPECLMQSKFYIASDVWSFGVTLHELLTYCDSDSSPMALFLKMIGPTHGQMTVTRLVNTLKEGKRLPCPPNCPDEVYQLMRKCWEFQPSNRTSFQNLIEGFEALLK
Non-receptor tyrosine-protein kinase TYK2, sequence (P29597 whole entry): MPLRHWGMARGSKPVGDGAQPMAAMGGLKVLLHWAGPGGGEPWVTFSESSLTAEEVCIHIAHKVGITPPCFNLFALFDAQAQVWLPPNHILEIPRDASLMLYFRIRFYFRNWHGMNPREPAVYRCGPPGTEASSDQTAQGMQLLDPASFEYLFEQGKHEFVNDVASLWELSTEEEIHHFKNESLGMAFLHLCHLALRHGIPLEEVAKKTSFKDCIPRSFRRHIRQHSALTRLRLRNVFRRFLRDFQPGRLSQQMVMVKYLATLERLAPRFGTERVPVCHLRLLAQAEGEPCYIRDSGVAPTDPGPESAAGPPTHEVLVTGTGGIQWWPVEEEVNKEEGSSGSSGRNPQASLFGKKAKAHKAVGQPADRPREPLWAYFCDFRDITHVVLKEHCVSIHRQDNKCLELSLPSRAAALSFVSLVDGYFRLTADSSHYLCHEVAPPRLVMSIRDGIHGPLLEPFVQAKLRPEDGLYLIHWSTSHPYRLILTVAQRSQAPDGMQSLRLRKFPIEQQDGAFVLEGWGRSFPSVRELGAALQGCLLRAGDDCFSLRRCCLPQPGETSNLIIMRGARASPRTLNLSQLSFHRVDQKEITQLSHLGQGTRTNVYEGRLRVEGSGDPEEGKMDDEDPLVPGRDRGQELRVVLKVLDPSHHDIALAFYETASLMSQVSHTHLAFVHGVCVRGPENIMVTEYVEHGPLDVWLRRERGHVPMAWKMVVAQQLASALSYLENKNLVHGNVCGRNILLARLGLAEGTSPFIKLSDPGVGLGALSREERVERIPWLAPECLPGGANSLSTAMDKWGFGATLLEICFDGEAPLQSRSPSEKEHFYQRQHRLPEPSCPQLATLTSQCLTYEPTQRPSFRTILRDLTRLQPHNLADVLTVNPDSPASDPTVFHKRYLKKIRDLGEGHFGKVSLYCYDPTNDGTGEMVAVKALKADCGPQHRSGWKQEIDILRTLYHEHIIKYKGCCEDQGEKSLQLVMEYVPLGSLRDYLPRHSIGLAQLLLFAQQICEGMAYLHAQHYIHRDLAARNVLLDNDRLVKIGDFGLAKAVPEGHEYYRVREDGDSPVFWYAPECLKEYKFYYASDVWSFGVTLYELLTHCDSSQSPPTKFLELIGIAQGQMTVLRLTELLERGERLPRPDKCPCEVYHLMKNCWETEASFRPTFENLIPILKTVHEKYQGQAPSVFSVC
Cytochrome P450 2C9, sequence (P11712 whole entry): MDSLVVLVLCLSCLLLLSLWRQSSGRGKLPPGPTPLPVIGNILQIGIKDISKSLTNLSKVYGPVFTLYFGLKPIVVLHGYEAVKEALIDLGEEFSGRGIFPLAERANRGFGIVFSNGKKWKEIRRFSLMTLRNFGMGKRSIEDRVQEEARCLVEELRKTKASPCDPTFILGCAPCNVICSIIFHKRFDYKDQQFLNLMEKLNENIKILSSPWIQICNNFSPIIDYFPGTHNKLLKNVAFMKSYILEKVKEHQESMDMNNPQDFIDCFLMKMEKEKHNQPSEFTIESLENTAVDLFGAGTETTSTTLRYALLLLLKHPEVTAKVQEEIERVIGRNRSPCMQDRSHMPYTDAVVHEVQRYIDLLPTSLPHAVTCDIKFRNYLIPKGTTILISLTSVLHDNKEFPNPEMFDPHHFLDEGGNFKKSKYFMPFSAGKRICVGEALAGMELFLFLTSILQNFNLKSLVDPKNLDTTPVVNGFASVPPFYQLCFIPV
Cytochrome P450 3A4, sequence (P08684 whole entry): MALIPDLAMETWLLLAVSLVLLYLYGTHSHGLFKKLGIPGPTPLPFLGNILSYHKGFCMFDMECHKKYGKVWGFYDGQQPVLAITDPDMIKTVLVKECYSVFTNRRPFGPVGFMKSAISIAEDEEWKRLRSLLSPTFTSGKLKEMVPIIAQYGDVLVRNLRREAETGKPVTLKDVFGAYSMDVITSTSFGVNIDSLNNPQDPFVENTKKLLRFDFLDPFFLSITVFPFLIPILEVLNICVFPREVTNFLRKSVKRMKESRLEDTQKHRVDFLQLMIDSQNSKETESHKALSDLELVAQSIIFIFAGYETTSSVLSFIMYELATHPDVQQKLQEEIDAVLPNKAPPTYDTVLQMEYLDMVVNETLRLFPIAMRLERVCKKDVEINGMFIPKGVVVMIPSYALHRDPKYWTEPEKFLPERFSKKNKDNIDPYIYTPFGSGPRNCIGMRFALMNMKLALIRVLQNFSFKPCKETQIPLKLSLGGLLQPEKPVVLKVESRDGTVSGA
Cytochrome P450 2D6, sequence (P10635 whole entry): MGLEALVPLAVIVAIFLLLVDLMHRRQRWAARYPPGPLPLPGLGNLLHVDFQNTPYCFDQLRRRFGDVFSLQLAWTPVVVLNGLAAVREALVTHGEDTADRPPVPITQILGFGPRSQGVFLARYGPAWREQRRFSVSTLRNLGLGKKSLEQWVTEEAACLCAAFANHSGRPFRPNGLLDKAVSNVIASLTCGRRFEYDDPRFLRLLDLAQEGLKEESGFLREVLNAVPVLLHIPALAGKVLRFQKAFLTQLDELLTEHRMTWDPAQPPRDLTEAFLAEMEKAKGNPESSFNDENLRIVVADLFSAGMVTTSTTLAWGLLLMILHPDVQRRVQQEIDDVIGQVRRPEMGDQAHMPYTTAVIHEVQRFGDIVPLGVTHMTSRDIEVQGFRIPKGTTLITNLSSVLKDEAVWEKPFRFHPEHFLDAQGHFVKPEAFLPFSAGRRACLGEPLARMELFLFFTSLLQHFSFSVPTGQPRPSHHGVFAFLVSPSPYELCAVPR

Work on C[C@@H](Nc1c(C(N)=O)cnn2cccc12)C(C)(C)C yielded an IC50 [1] of 0.008 µM, an IC50 [2] of 0.048 µM and an IC50 [3] of 0.016 µM. The IC50 [4] was 0.03 µM, the IC50 [5] was 0.93 µM and the fraction unbound [6] was 0.027. It also gave a Papp [7] of 862 nm/s and a Papp [8] of 192 nm/s.

CC1(C)CCC[C@H]1Nc1c(C(N)=O)cnn2cccc12 gave an IC50 [1] of 0.005 µM, an IC50 [2] of 0.024 µM and an IC50 [3] of 0.008 µM. The IC50 [4] was 0.016 µM, the IC50 [5] was 1.2 µM and the fraction unbound [9] was 0.019. For the same compound, the fraction unbound [6] was 0.019.

Compound C[C@H](Nc1c(C(N)=O)cnn2cccc12)C(C)(C)C has an IC50 [1] of 0.11 µM, an IC50 [2] of 0.27 µM and an IC50 [3] of 0.68 µM. The IC50 [4] was 0.57 µM.

Compound CC1(C)CCC[C@@H]1Nc1c(C(N)=O)cnn2cccc12 has an IC50 [1] of 0.066 µM, an IC50 [2] of 0.056 µM and an IC50 [3] of 0.13 µM. It also gave an IC50 [4] of 0.13 µM.

NC(=O)c1cnn2cccc2c1NC1CCCC1 gave an IC50 [2] of 0.17 µM, an IC50 [3] of 0.15 µM and an IC50 [4] of 0.25 µM.

CC1(C)[C@H](Nc2c(C(N)=O)cnn3cccc23)CC[C@@]1(C)N gave an IC50 [1] of 0.032 µM, an IC50 [2] of 0.071 µM and an IC50 [3] of 0.052 µM. The IC50 [4] was 0.28 µM, the IC50 [5] was 0.18 µM and the fraction unbound [9] was 0.52.

CC1(C)[C@H](Nc2c(C(N)=O)cnn3cccc23)CC[C@]1(C)N showed an IC50 [1] of 0.005 µM, an IC50 [2] of 0.019 µM and an IC50 [3] of 0.097 µM. The IC50 [4] was 0.062 µM, the IC50 [5] was 0.21 µM and the Fu [10] was 52%.

C[C@]1(F)CCC[C@H]1Nc1c(C(N)=O)cnn2cccc12 showed an IC50 [1] of 0.001 µM, an IC50 [2] of 0.009 µM and an IC50 [3] of 0.002 µM. The IC50 [4] was 0.018 µM, the IC50 [5] was 0.26 µM and the fraction unbound [9] was 0.11. It also gave a Papp [7] of 766 nm/s, a Papp [8] of 256 nm/s and an IC50 [11] greater than 20 µM. It also gave an IC50 [12] greater than 20 µM, an IC50 [13] greater than 20 µM and an IC50 [14] greater than 20 µM. The IC50 [15] was greater than 20 µM, the IC50 [16] was greater than 20 µM and the half-life [17] was 34 min. The half-life [18] was 20 min, the AUC [19] was 2 µM·h and the half-life [20] was 72 min. For the same compound, the clearance [21] was 3.6 L/h/kg, the Vd [22] was 4.8 L/kg and the Cmax [23] was 0.48 µM. The Tmax [24] was 30 min, the AUC [25] was 0.87 µM·h and the half-life [26] was 84 min. For the same compound, the bioavailability [27] was 45%, the Cmax [28] was 2.6 µM and the Tmax [29] was 30 min. For the same compound, the AUC [30] was 5.7 µM·h, the half-life [31] was 96 min and the bioavailability [32] was 59%. The Cmax [33] was 8.2 µM, the Tmax [34] was 30 min and the AUC [35] was 21 µM·h. The half-life [36] was 120 min and the bioavailability [37] was 46%.

For C[C@@]1(F)CCC[C@@H]1Nc1c(C(N)=O)cnn2cccc12, the IC50 [1] was 0.047 µM, the IC50 [2] was 0.19 µM and the IC50 [3] was 0.4 µM. For the same compound, the IC50 [4] was 0.13 µM.

In the case of C[C@@]1(C#N)CCC[C@H]1Nc1c(C(N)=O)cnn2cccc12 (racemic), the IC50 [1] is reported as 0.067 µM, the IC50 [2] is reported as 0.061 µM and the IC50 [3] is reported as 0.03 µM.

CC1(C)[C@@H](O)CC[C@H]1Nc1c(C(N)=O)cnn2cccc12 (racemic) showed an IC50 [1] of 0.016 µM, an IC50 [2] of 0.062 µM and an IC50 [3] of 0.079 µM. It also gave an IC50 [4] of 0.13 µM and an IC50 [5] of 1.2 µM.

With CC1(C)[C@H](O)CC[C@H]1Nc1c(C(N)=O)cnn2cccc12 (racemic) the IC50 [1] was 0.006 µM, the IC50 [2] was 0.021 µM and the IC50 [3] was 0.022 µM. The IC50 [4] was 0.042 µM, the IC50 [5] was 0.38 µM and the fraction unbound [9] was 0.17.
